From patent US20200017495A1, “NOVEL HETEROCYCLIC COMPOUNDS AND THEIR USE IN PREVENTING OR TREATING BACTERIAL INFECTIONS” (priority 2017, published 2020)
Where two headings read alike, the source gives them in different places.

How the values were obtained:
[1] = molecular target: TEM-1 (Escherichia coli, UniProt P62593); test: β-lactamase inhibitory activity, IC50 (nitrocefin hydrolysis); type: biochemical
Protocol: (§3) Enzymes were cloned in E. coli expression vector, expressed and purified in house using classical procedures. […] After 30 min of pre-incubation at room temperature, 15 μL of NCF (100 μM final) were finally added in each well. […] Enzyme activity was obtained by subtracting the background from the final signal, and was converted to enzyme inhibition using non inhibited wells. IC50 curves were fitted to a classical Langmuir equilibrium model with Hill slope using XLFIT (IDBS).

[2] = molecular target: SHV-1 (Klebsiella pneumoniae, UniProt P0AD64); test: as above; type: biochemical
Protocol: as §3

[3] = molecular target: SHV-12 (Klebsiella pneumoniae, UniProt P0AD64, E235K/G234S/L31Q); test: as above; type: biochemical; conditions: SHV-12; 30 min pre-incubation, nitrocefin 100 μM; read-out: IC50
Protocol: (§4) Method 1: β-Lactamase Inhibitory Activity, Determination of IC50 (Table 1)
as §3

[4] = molecular target: CTX-M-15 (Escherichia coli, UniProt Q9EXV5); test: as above; type: biochemical
Protocol: as §4, §3

[5] = molecular target: KPC-2 (Klebsiella pneumoniae, UniProt Q9F663); test: as above; type: biochemical
Protocol: as §4, §3

[6] = molecular target: SAU PC1 (Staphylococcus aureus, UniProt P00807); test: as above; type: biochemical, S. aureus; conditions: SAU PC1; 30 min pre-incubation, nitrocefin 100 μM; read-out: IC50
Protocol: as §4, §3

[7] = molecular target: P99 ampC (Enterobacter cloacae, UniProt P05364); test: as above; type: biochemical
Protocol: as §4, §3

[8] = molecular target: PAE ampC (Pseudomonas aeruginosa, UniProt P24735); test: as above; type: biochemical, P. aeruginosa
Protocol: as §3

[9] = molecular target: OXA-1 (Escherichia coli, UniProt P13661); test: as above; type: biochemical
Protocol: as §3

[10] = molecular target: OXA-11 (Pseudomonas aeruginosa, UniProt Q06778); test: as above; type: biochemical
Protocol: as §3

[11] = molecular target: OXA-15 (Pseudomonas aeruginosa, UniProt Q51574); test: as above; type: biochemical
Protocol: as §3

[12] = molecular target: OXA-23 (Acinetobacter baumannii, UniProt Q9L4P2); test: as above; type: biochemical
Protocol: as §3

[13] = molecular target: OXA-40 (Acinetobacter baumannii, UniProt Q8RLA6); test: as above; type: biochemical
Protocol: as §3

[14] = molecular target: OXA-48 (Klebsiella pneumoniae, UniProt Q6XEC0); test: as above; type: biochemical
Protocol: as §3

[15] = molecular target: OXA-58 (Acinetobacter baumannii, UniProt Q2TR58); test: as above; type: biochemical
Protocol: as §3

[16] = system: Citrobacter freundii (CFR) isolates; test: MIC of compounds alone and combined with antibacterials, broth microdilution (CLSI); type: cell-based; conditions: Citrobacter freundii, strain CFR UFR250; compound alone
Protocol: (§1) Method 2: MIC of Compounds Alone and Combined with Antibacterials Against Bacterial Isolates
(§2) Compounds of the present invention were assessed against genotyped bacterial strains (Table 3, 4) alone or in combination with an antibacterial (Table 2). […] Log phase bacterial suspensions were adjusted to a final density of 5.10^5 CFU/mL in cation-adjusted Mueller-Hinton broth (ca-MHB; Becton-Dickinson and Company) and added to each well (98 μL). Microplates were incubated for 16-20 h at 35° C. in ambient air. The MIC of the compounds was defined as the lowest concentration of said compounds that prevented bacterial growth as read by visual inspection. The MIC of ATB at each compound concentration was defined as the lowest concentration of ATB that prevented bacterial growth as read by visual inspection.

[17] = system: Enterobacter aerogenes (EAE) isolates; test: as above; type: cell-based; conditions: Klebsiella aerogenes
Protocol: as §1, §2

[18] = system: Escherichia coli (ECO) isolates; test: as above; type: cell-based; conditions: Escherichia coli, compound alone, read-out: MIC
Protocol: as §1, §2

[19] = system: Klebsiella pneumoniae (KPN) isolates; test: as above; type: cell-based; conditions: Klebsiella pneumoniae, compound alone, read-out: MIC
Protocol: as §1, §2

[20] = system: Serratia marcescens (SMA) isolates; test: as above; type: cell-based; conditions: Serratia marcescens; strain SMA UFR143; compound alone; read-out: MIC
Protocol: as §1, §2

[21] = system: Proteus mirabilis (PMI) isolates; test: microbe, parasite or virus in culture; type: cell-based; conditions: Proteus mirabilis, compound alone, read-out: MIC
Protocol: as §1, §2

[22] = system: Providencia stuartii (PST) isolates; test: MIC of compounds alone and combined with antibacterials, broth microdilution (CLSI); type: cell-based; conditions: Providencia stuartii; strain PST UFR235; compound alone; read-out: MIC
Protocol: as §1
Compounds of the present invention were assessed against genotyped bacterial strains (Table 3, 4) alone or in combination with an antibacterial (Table 2). […]. Briefly, compounds alone according to the invention were prepared in DMSO and spotted (2 μL each) on sterile polystyrene plates (Corning, 3788). Combinations of compounds and antibiotics dilutions were prepared in DMSO and spotted (1 μL each) on sterile polystyrene plates (Corning, 3788). Log phase bacterial suspensions were adjusted to a final density of 5.10^5 CFU/mL in cation-adjusted Mueller-Hinton broth (ca-MHB; Becton-Dickinson and Company) and added to each well (98 μL). Microplates were incubated for 16-20 h at 35° C. in ambient air. The MIC of the compounds was defined as the lowest concentration of said compounds that prevented bacterial growth as read by visual inspection. The MIC of ATB at each compound concentration was defined as the lowest concentration of ATB that prevented bacterial growth as read by visual inspection.

Sequence of PAE ampC (P24735 27-397): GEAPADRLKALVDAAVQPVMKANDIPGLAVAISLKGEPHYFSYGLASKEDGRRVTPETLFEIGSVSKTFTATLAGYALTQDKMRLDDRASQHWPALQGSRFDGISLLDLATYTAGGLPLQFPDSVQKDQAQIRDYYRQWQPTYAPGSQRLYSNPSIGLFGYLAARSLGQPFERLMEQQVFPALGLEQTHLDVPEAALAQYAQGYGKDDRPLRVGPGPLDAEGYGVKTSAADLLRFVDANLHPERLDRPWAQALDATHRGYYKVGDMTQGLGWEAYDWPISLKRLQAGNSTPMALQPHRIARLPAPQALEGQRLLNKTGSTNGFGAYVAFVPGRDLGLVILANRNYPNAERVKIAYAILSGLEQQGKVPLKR
Sequence of KPC-2 (Q9F663 25-293 limits assumed): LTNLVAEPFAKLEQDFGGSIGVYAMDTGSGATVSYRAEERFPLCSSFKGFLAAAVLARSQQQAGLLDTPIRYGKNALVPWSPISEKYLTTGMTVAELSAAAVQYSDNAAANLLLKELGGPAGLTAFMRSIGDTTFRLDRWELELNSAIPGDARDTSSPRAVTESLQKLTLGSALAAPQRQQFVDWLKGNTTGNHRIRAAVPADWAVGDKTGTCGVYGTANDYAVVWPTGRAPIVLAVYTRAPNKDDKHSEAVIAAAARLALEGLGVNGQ
Sequence of OXA-15 (Q51574 22-275): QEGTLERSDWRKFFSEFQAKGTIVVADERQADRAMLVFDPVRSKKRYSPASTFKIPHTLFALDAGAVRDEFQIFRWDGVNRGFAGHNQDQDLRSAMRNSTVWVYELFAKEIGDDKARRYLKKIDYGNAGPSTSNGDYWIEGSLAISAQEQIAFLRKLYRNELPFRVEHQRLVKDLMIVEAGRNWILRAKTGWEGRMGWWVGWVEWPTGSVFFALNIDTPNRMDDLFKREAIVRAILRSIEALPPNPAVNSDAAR
Sequence of SHV-12 (P0AD64 22-286 L31Q/G234S/E235K): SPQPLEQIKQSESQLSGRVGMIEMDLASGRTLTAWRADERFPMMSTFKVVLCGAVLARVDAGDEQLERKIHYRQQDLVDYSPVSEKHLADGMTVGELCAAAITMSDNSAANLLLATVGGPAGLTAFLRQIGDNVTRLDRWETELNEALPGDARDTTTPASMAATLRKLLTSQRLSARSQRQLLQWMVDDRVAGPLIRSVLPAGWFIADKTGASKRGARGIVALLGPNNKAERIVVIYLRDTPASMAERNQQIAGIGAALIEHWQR
Sequence of OXA-58 (Q2TR58 19-280): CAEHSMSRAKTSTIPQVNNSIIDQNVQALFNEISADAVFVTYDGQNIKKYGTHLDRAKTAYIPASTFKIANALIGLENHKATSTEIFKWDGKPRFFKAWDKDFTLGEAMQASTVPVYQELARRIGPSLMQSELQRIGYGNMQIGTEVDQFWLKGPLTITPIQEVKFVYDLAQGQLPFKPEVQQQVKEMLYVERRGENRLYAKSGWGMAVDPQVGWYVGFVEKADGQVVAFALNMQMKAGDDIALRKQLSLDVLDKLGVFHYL
Sequence of OXA-1 (P13661 26-276): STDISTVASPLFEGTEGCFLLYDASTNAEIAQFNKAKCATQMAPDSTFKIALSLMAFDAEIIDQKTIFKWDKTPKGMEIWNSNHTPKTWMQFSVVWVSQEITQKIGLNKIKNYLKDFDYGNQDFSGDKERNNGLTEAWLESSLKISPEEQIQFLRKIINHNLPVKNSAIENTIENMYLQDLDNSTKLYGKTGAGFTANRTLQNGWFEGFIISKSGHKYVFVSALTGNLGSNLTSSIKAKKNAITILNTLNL
Sequence of CTX-M-15 (Q9EXV5 entry or part of it): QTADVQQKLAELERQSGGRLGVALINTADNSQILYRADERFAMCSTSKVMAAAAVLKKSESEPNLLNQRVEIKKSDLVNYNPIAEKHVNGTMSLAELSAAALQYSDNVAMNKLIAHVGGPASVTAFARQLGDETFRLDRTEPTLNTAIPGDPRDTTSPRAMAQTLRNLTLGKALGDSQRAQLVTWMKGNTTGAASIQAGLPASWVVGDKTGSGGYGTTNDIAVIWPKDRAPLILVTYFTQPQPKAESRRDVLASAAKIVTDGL
Sequence of TEM-1 (P62593 24-286 limits assumed): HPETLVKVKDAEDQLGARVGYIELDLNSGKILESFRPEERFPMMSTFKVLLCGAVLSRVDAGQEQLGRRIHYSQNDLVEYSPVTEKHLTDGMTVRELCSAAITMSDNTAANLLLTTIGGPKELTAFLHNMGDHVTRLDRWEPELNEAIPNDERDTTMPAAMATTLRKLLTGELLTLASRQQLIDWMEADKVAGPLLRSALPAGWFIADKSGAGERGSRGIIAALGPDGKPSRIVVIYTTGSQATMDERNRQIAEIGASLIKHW
Sequence of SAU PC1 (P00807 25-281): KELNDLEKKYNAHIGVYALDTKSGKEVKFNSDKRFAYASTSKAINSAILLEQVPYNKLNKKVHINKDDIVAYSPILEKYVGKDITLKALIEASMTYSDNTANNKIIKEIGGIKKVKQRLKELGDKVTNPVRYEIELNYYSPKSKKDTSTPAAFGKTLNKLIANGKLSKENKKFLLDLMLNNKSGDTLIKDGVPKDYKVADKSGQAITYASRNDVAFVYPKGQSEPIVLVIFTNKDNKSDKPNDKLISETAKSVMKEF
Sequence of P99 ampC (P05364 21-381): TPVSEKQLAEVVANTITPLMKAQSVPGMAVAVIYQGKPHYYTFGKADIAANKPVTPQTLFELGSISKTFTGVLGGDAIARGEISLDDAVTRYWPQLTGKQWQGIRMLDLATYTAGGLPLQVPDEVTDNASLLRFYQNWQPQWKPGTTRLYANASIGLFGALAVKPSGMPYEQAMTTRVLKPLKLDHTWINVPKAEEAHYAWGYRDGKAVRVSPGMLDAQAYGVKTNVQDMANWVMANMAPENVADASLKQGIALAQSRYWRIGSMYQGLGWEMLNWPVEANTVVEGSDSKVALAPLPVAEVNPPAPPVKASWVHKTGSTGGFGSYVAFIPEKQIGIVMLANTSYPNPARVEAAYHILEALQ
Sequence of SHV-1 (P0AD64 22-286): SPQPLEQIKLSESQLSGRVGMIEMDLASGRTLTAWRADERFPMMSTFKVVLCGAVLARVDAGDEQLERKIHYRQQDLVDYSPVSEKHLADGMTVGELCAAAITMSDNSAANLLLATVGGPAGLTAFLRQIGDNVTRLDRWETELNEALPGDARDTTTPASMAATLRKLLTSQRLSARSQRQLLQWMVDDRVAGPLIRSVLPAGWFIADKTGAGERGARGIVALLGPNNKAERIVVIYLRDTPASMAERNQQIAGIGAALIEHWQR
Sequence of OXA-48 (Q6XEC0 23-265 limits assumed): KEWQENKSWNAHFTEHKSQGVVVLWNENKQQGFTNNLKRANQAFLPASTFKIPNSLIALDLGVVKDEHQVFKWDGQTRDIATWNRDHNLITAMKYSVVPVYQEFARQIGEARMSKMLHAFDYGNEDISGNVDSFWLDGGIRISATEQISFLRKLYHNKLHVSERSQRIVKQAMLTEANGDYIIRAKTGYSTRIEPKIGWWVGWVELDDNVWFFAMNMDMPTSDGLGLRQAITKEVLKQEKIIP
Sequence of OXA-23 (Q9L4P2 18-273): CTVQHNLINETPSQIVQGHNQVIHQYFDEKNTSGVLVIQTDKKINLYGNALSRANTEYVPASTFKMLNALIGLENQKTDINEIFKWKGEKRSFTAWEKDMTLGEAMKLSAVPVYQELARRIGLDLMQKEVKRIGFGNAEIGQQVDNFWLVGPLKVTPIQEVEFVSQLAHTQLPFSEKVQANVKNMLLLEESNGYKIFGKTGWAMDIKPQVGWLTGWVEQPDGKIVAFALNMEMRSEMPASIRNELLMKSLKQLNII
Sequence of OXA-40 (Q8RLA6 entry or part of it): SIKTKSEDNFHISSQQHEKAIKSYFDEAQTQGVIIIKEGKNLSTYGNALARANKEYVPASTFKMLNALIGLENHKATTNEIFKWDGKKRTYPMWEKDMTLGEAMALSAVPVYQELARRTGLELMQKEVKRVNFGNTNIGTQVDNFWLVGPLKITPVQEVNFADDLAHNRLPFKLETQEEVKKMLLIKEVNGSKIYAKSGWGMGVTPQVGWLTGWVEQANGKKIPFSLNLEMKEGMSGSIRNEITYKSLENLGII
Sequence of OXA-11 (Q06778 21-266): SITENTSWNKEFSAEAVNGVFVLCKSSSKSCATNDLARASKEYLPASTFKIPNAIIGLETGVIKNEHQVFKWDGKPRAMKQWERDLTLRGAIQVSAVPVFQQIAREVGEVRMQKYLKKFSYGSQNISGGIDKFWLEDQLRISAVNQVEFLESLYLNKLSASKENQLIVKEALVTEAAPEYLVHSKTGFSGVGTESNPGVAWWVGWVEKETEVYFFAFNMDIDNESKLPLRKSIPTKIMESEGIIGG

Q: Which IC50 [1] does the source give for `O=C1N2CC=C(c3cnoc3)C(C2)N1OC(F)(F)C(=O)[O-].[Li+]` (stereo not drawn) [AF1, Lithium difluoro-(4-isoxazol-4-yl-7-oxo-1,6-diaza-bicyclo[3.2.1]oct-3-en-6-yloxy)-acetate] here?
A: Its IC50 is 10 nM.

Q: What about the IC50 [2] of the same compound?
A: Its IC50 is 20 nM.

Q: What about the IC50 [3] of the same compound?
A: Its IC50 is 3.8 nM.

Q: What about the IC50 [4] of the same compound?
A: Its IC50 is 2.4 nM.

Q: And the IC50 [5]?
A: Its IC50 is 510 nM.

Q: And the IC50 [6]?
A: The IC50 was 560 nM.

Q: What about the IC50 [7] of the same compound?
A: The IC50 was 2200 nM.

Q: And the IC50 [8]?
A: The IC50 was 4500 nM.

Q: And the IC50 [9]?
A: Its IC50 is 1600 nM.

Q: What about the IC50 [10] of the same compound?
A: Its IC50 is 250 nM.

Q: What about the IC50 [11] of the same compound?
A: Its IC50 is 24 nM.

Q: And the IC50 [12]?
A: Its IC50 is 110 nM.

Q: What about the IC50 [13] of the same compound?
A: Its IC50 is 120 nM.

Q: And the IC50 [14]?
A: The IC50 was 3 nM.

Q: And the IC50 [15]?
A: Its IC50 is 15 nM.

Q: What about the MIC [16] of the same compound?
A: The MIC was greater than 32 µg/mL.

Q: And the MIC [17]?
A: Its MIC is 32 µg/mL.

Q: And the MIC ([18]; strain ECO 190317)?
A: Its MIC is 2 µg/mL.

Q: And the MIC ([18]; strain ECO 190457)?
A: Its MIC is 4 µg/mL.

Q: And the MIC ([18]; strain ECO UFR16)?
A: Its MIC is 8 µg/mL.

Q: What about the MIC ([18]; strain ECO UFR20) of the same compound?
A: The MIC was 16 µg/mL.

Q: What about the MIC ([18]; strain ECO UFR61O) of the same compound?
A: The MIC was 8 µg/mL.

Q: What about the MIC ([18]; strain ECO UFR209) of the same compound?
A: Its MIC is 8 µg/mL.

Q: And the MIC ([19]; strain KPN 110376)?
A: Its MIC is greater than 32 µg/mL.

Q: What about the MIC ([19]; strain KPN 131119) of the same compound?
A: Its MIC is greater than 32 µg/mL.

Q: What about the MIC ([19]; strain KPN 190270) of the same compound?
A: The MIC was greater than 32 µg/mL.

Q: And the MIC ([19]; strain KPN UFR25)?
A: The MIC was greater than 32 µg/mL.

Q: And the MIC ([19]; strain KPN UFR66)?
A: Its MIC is greater than 32 µg/mL.

Q: What about the MIC ([19]; strain KPN UFR68) of the same compound?
A: Its MIC is greater than 32 µg/mL.

Q: And the MIC [20]?
A: The MIC was 32 µg/mL.

Q: What about the MIC ([21]; strain PMI UFR126) of the same compound?
A: The MIC was 8 µg/mL.

Q: What about the MIC ([21]; strain PMI UFR127) of the same compound?
A: The MIC was 4 µg/mL.

Q: And the MIC [22]?
A: The MIC was greater than 32 µg/mL.
